Data: US20220073536A1 (Rigel Pharmaceuticals, Inc., priority 2003, published 2022)
Structures can show the parent of a compound that is named as a salt.

Columns and labels:
[1] = tested on: cultured human mast cells (CHMC); assay: CHMC low cell density IgE activation: tryptase assay; assay type: cell-based; conditions: IgE activation
Method in brief: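 Tryptase release, fluorogenic substrate, 30 min RT. Prior anti-IgE stimulation of CHMC, 30 min, 37 °C, after 1 hr preincubation at 1000–1500 cells/well in MT; unstimulated wells received MT.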

[2] = tested on: cultured human mast cells (CHMC); assay: CHMC low cell density ionomycin activation: tryptase assay; assay type: cell-based; conditions: 3 pt, read-out: LD Tryptase, CHMC, Iono, 3 pt
[3] = Homo sapiens, Mast cell, low cell density CHMC, tryptase release, 3 pt, read-out: LD Tryptase, CHMC, IgE, 3 pt
[4] = Homo sapiens, Mast cell, low cell density CHMC, tryptase release, 8 pt, read-out: LD Tryptase, CHMC, IgE, 8 pt
[5] = Homo sapiens, Mast cell, low cell density CHMC, tryptase release
[6] = Homo sapiens, Mast cell, low cell density, 3 pt, read-out: LD Tryptase, CHMC, IgE, 3 pt
[7] = Homo sapiens, Mast cell, low cell density, 8 pt, read-out: LD Tryptase, CHMC, IgE, 8 pt
[8] = Homo sapiens, Mast cell, low cell density

Compound | IC50 [1, 3] | IC50 [1, 4] | IC50 [2, 5] | other results
COc1cc(Nc2nc(Nc3ccc4c(cnn4CCCOC(C)=O)c3)ncc2F)ccc1F [Compound 789, N2-[1-(3-Acetyloxypropyl)indazol-5-yl]-5-fluoro-N4-(4-fluoro-3-methoxyphenyl)-2,4-pyrimidinediamine] | < 10 µM | < 10 µM | > 10 µM | –
CC1(C)Oc2ccc(Nc3nc(Nc4ccc5cnn(CCCO)c5c4)ncc3F)cc2NC1=O [Compound 791, N4-(2,2-Dimethyl-3-oxo-4H-benz[1,4]oxazin-6-yl)-5-fluoro-N2-[1-(3-hydroxypropyl)indazol-6-yl]-2,4-pyrimidinediamine] | < 10 µM | < 10 µM | > 10 µM | –
COCCCn1ncc2cc(Nc3ncc(F)c(Nc4ccc5c(c4)NC(=O)C(C)(C)O5)n3)ccc21 [Compound 794, N4-(2,2-Dimethyl-3-oxo-4H-benz[1,4]oxazin-6-yl)-5-fluoro-N2-[1-(3-methoxypropyl)indazol-5-yl]-2,4-pyrimidinediamine] | < 10 µM | < 10 µM | > 10 µM | –
COCCCn1ncc2cc(Nc3ncc(F)c(Nc4ccc5c(c4)NC(=O)[C@H](C)O5)n3)ccc21 [Compound 795, (S)-5-Fluoro-N2-[1-(3-methoxypropyl)indazol-5-yl]-N4-(2-methyl-3-oxo-2H,4H-benz[1,4]oxazin-6-yl)-2,4-pyrimidinediamine] | < 10 µM | < 10 µM | > 10 µM | –
COCCCn1ncc2ccc(Nc3ncc(F)c(Nc4ccc5c(c4)NC(=O)C(C)(C)O5)n3)cc21 [Compound 798, N4-(2,2-Dimethyl-3-oxo-4H-benz[1,4]oxazin-6-yl)-5-fluoro-N2-[1-(3-methoxypropyl)indazol-6-yl]-2,4-pyrimidinediamine] | < 10 µM | < 10 µM | < 10 µM | –
COCCCn1ncc2ccc(Nc3ncc(F)c(Nc4ccc5c(c4)NC(=O)[C@H](C)O5)n3)cc21 [Compound 799, (S)-5-Fluoro-N2-[1-(3-methoxypropyl)indazol-6-yl]-N4-(2-methyl-3-oxo-2H,4H-benz[1,4]oxazin-6-yl)-2,4-pyrimidinediamine] | < 10 µM | < 10 µM | > 10 µM | –
CC1(C)Oc2ccc(Nc3nc(Nc4ccc5[nH]c(C(F)(F)F)nc5c4)ncc3F)cc2NC1=O [Compound 802, N4-(2,2-Dimethyl-3-oxo-4H-benz[1,4]oxazin-6-yl)-5-fluoro-N2-(2-trifluoromethyl-1H-benzimidazol-5-yl)-2,4-pyrimidinediamine] | < 10 µM | < 10 µM | > 10 µM | –
C[C@@H]1Oc2ccc(Nc3nc(Nc4ccc5[nH]c(C(F)(F)F)nc5c4)ncc3F)cc2NC1=O [Compound 803, (S)-5-Fluoro-N4-(2-methyl-3-oxo-2H,4H-benz[1,4]oxazin-6-yl)-N2-(2-trifluoromethyl-1H-benzimidazol-5-yl)-2,4-pyrimidinediamine] | < 10 µM | < 10 µM | > 10 µM | –
COc1ccc(Nc2nc(Nc3ccc4c(cnn4CCCNS(C)(=O)=O)c3)ncc2F)cc1Cl [Compound 832, N4-(3-Chloro-4-methoxyphenyl)-5-fluoro-N2-[1-[3-(N-methylsulfonylamino)propyl]indazol-5-yl]-2,4-pyrimidinediamine] | < 10 µM | < 10 µM | > 10 µM | –
CC1(C)Oc2ccc(Nc3nc(Nc4ccc5c(cnn5CCCNS(C)(=O)=O)c4)ncc3F)cc2NC1=O [Compound 834, N4-(2,2-Dimethyl-3-oxo-4H-benz[1,4]oxazin-6-yl)-5-fluoro-N2-[1-[3-(N-methylsulfonylamino)propyl]indazol-5-yl]-2,4-pyrimidinediamine] | > 10 µM | < 10 µM | > 10 µM | –
C[C@@H]1Oc2ccc(Nc3nc(Nc4ccc5c(cnn5CCCNS(C)(=O)=O)c4)ncc3F)cc2NC1=O [Compound 835, (S)-5-Fluoro-N4-(2-methyl-3-oxo-2H,4H-benz[1,4]oxazin-6-yl)-N2-[1-(3-(N-methylsulfonylamino)propyl)indazol-5-yl]-2,4-pyrimidinediamine] | < 10 µM | < 10 µM | > 10 µM | –
CC1(C)Oc2ccc(Nc3nc(Nc4ccc5c(cnn5CCCNS(C)(=O)=O)c4)ncc3F)nc2NC1=O [Compound 836, N4-(2,2-Dimethyl-3-oxo-4H-5-pyrid[1,4]oxazin-6-yl)-5-fluoro-N2-[1-[3-(N-methylsulfonylamino)propyl]indazol-5-yl]-2,4-pyrimidinediamine] | – | – | – | IC50 ([1]; low cell density CHMC, tryptase release, 3 pt, read-out: LD Tryptase, CHMC, IgE, 3 pt): < 10 µM; IC50 ([1]; low cell density CHMC, tryptase release, 8 pt, read-out: LD Tryptase, CHMC, IgE, 8 pt): < 10 µM; IC50 ([2]; low cell density CHMC, tryptase release): > 10 µM
Cc1nc2ccc(Nc3ncc(F)c(Nc4ccc5c(n4)NC(=O)C(C)(C)O5)n3)cc2[nH]1 [Compound 845, N4-(2,2-Dimethyl-3-oxo-4H-5-pyrid[1,4]oxazin-6-yl)-5-fluoro-N2-(2-methyl-3H-benzimidazol-5-yl)-2,4-pyrimidinediamine] | – | < 10 µM | < 10 µM | –
CC1(C)Oc2ccc(Nc3nc(Nc4ccc5[nH]c(C(F)(F)F)nc5c4)ncc3F)nc2NC1=O [Compound 846, N4-(2,2-Dimethyl-3-oxo-4H-5-pyrid[1,4]oxazin-6-yl)-5-fluoro-N2-(2-trifluoromethyl-1H-benzimidazol-5-yl)-2,4-pyrimidinediamine] | – | < 10 µM | < 10 µM | –
Cn1ncc2ccc(Nc3ncc(F)c(Nc4ccc5c(c4)NC(=O)C(C)(C)O5)n3)cc21 [Compound 993, N4-(2,2-Dimethyl-3-oxo-4H-benz[1,4]oxazin-6-yl)-5-fluoro-N2-(1-methylindazol-6-yl)-2,4-pyrimidinediamine p-Toluenesulfonic Acid Salt] | – | – | – | IC50 [1, 6]: < 10 µM; IC50 [1, 7]: < 10 µM; IC50 [2, 8]: < 10 µM
Cc1cc(Nc2ncc(F)c(Nc3ccc4c(c3)OCCO4)n2)cc(Cl)c1O [Compound 995, N2-(3-Chloro-4-hydroxy-5-methylphenyl)-N4-(3,4-ethylenedioxyphenyl)-5-fluoro-2,4-pyrimidinediamine] | – | – | – | IC50 [1, 6]: < 10 µM; IC50 [1, 7]: < 10 µM; IC50 [2, 8]: < 10 µM

Second part, led by results:

IC50 [1, 3] | IC50 [1, 4] | IC50 [2, 5] | Compound | other results
< 10 µM | < 10 µM | > 10 µM | CC(=O)OCCCn1ncc2cc(Nc3ncc(F)c(Nc4ccc(Cl)c(Cl)c4)n3)ccc21 [Compound 787, N2-[1-(3-Acetyloxypropyl)indazol-5-yl]-N4-(3,4-dichlorophenyl)-5-fluoro-2,4-pyrimidinediamine] | –
< 10 µM | < 10 µM | > 10 µM | COc1ccc(Nc2nc(Nc3ccc4c(cnn4CCCOC(C)=O)c3)ncc2F)cc1Cl [Compound 788, N2-[1-(3-Acetyloxypropyl)indazol-5-yl]-N4-(3-chloro-4-methoxyphenyl)-5-fluoro-2,4-pyrimidinediamine] | –
< 10 µM | < 10 µM | > 10 µM | CC(=O)OCCCn1ncc2ccc(Nc3ncc(F)c(Nc4ccc(Cl)c(Cl)c4)n3)cc21 [Compound 790, N2-[1-(3-Acetyloxypropyl)indazol-6-yl]-N4-(3,4-dichlorophenyl)-5-fluoro-2,4-pyrimidinediamine] | –
< 10 µM | < 10 µM | > 10 µM | COCCCn1ncc2cc(Nc3ncc(F)c(Nc4ccc(Cl)c(Cl)c4)n3)ccc21 [Compound 793, N4-(3,4-Dichlorophenyl)-5-fluoro-N2-[1-(3-methoxypropyl)indazol-5-yl]-2,4-pyrimidinediamine] | –
< 10 µM | < 10 µM | > 10 µM | COCCCn1ncc2ccc(Nc3ncc(F)c(Nc4ccc(OC)c(Cl)c4)n3)cc21 [Compound 796, N4-(3-Chloro-4-methoxyphenyl)-5-fluoro-N2-[1-(3-methoxypropyl)indazol-6-yl]-2,4-pyrimidinediamine] | –
< 10 µM | < 10 µM | > 10 µM | COCCCn1ncc2ccc(Nc3ncc(F)c(Nc4ccc(Cl)c(Cl)c4)n3)cc21 [Compound 797, N4-(3,4-Dichlorophenyl)-5-fluoro-N2-[1-(3-methoxypropyl)indazol-6-yl]-2,4-pyrimidinediamine] | –
< 10 µM | < 10 µM | > 10 µM | Cc1nc2ccc(Nc3ncc(F)c(Nc4ccc5c(c4)NC(=O)[C@H](C)O5)n3)cc2[nH]1 [Compound 811, (S)-5-Fluoro-N2-(2-methyl-3H-benzimidazol-5-yl)-N4-(2-methyl-3-oxo-2H,4H-benz[1,4]oxazin-6-yl)-2,4-pyrimidinediamine] | –
< 10 µM | – | > 10 µM | COc1ccc(Nc2nc(Nc3ccc4c(cnn4CCCO)c3)ncc2F)cc1Cl [Compound 827, N4-(3-Chloro-4-methoxyphenyl)-5-fluoro-N2-[1-(3-hydroxypropyl)indazol-5-yl]-2,4-pyrimidinediamine p-Toluenesulfonic Acid Salt] | –
< 10 µM | < 10 µM | > 10 µM | CS(=O)(=O)NCCCn1ncc2cc(Nc3ncc(F)c(Nc4ccc(Cl)c(Cl)c4)n3)ccc21 [Compound 833, N4-(3,4-Dichlorophenyl)-5-fluoro-N2-[1-[3-(N-methylsulfonylamino)propyl]indazol-5-yl]-2,4-pyrimidinediamine] | –
